Data reported in US20230117034A1, “PYRAZOLOTRIAZINES” (Bayer Aktiengesellschaft, priority 2019, published 2023).
pIC50: −log10 of the molar value. Where two headings read alike, the source gives them in different places.

Tests used:
[1] = tested on: Human tumour cells (cell line panel); assay: Proliferation assay: cell line panel (crystal violet, 4 days); assay type: cell-based; settings: read-out: Result Category, IC50 (mean)
Source text: Human tumour cells were originally obtained from the American Type Culture Collection (ATCC), from Cell Line Services GmbH (CLS), from the Deutsche Sammlung von Mikroorganismen und Zellkulturen (DSMZ, German Collection of Microorganisms and Cell Cultures), from the Japanese Cancer Research Resources Bank (JCRB), from Public Health England, from the European Collection of Authenticated Cell Cultures (ECACC), from Asterand Biosciences, or from the National Cancer Institute (NCI). Cultivated tumour cells were plated at the density as indicated in Table 6 in 96-well multititer plates in 200 microL of their respective growth medium supplemented 10% fetal calf serum. After 24 hours, the cells of one plate (zero-point plate) were stained with crystal violet (see below), while the medium of the other plates was supplemented with the test substances in various concentrations (0 micromol/L, as well as in the range of 0.003-3 micromol/L; the final concentration of the solvent dimethyl sulfoxide was adjusted to 0.1%) using a Tecan HP D300 Digital Dispenser. The cells were incubated for 4 days in the presence of test substances. Cell proliferation was determined by staining the cells with crystal violet: the cells were fixed by adding 20 microL/measuring point of an 11% glutaric aldehyde solution for 15 minutes at room temperature. After three washing cycles of the fixed cells with water, the plates were dried at room temperature. The cells were stained by adding 100 microL/measuring point of a 0.1% crystal violet solution (pH 3.0). After three washing cycles of the stained cells with water, the plates were dried at room temperature. The dye was dissolved by adding 100 microL/measuring point of a 10% acetic acid solution. The extinction was determined by photometry at a wavelength of 595 nm. The change of cell number, in percent, was calculated by normalization of the measured values to the extinction values of the zero-point plate (=0%) and the extinction of the untreated (0 μM) cells (=100%). The […] values (inhibitory concentration at 50% of maximal effect) were determined by means of a 4 parameter fit.

[2] = tested on: BRCA1 mRNA expression in CAL-120 cells; assay: qRT-PCR assay: BRCA1 mRNA expression in CAL-120; assay type: cell-based; settings: Homo sapiens; Inhibition of BRCA1 mRNA expression in CAL-120 cells; median; read-out: RTqPCR-CAL-120, IC50, BRCA1 (median)
Description: 3. qRT-PCR Assay: BRCA, ATR, MCL1 in MDA-MB-231, CAL-120
Tissue cultured human MDA-MB-231 human breast cancer cells were plated in 500 microL per well at 200,000 cells/well in a 24 well microtiter plate. After 24 h, the cells were exposed continuously for 24 h to test substances (substances were added with Tecan HP 0300 Dispenser). RNA was prepared using Qiagen RNeasy MiniKit (#74106), RNA was quantified using a NanoDrop Equipment, and 600 nano gamms of RNA was coverted to cDNA using a SuperScript VILO kit (Thermofisher #11755050) followed by qPCR amplification. BRCA1 and ATR gene expression was measured by RT-qPCR and normalised to GAPDH housekeeping gene expression. qPCR primer sets have been purchased from Thermo Fisher Scientific/Applied Biosystems: BRCA1, #Hs 01556193; ATR, #Hs 00992123; GAPDH, #Hs 03929097.

Brc1cnn2c(NCc3nc4ccccc4[nH]3)nc(N3CCOCC3)nc12 [Example 4, N-[(1H-benzimidazol-2-yl)methyl]-8-bromo-2-(morpholin-4-yl)pyrazolo[1,5-a][1,3,5]triazin-4-amine]
pIC50 ([1]; A673, sarcoma, 5000 cells/well): ≥ 7.52
pIC50 ([1]; AU565, breast cancer, HER2 positive, 4000 cells/well): ≥ 7.52
pIC50 ([1]; BT-474, BT474, breast cancer, HER2 positive, 4000 cells/well): ≥ 7.52
pIC50 ([1]; BT-549, BT549, breast cancer, 4000 cells/well): ≥ 7.52
pIC50 ([1]; CAL-120, breast cancer, triple-negative, 4000 cells/well): ≥ 7.52
pIC50 ([1]; COV318, ovarian cancer, 4000 cells/well): ≤ 7.00
pIC50 ([1]; COV362, ovarian cancer, 4000 cells/well): ≤ 7.00
pIC50 ([1]; Calu-3, lung cancer, non-small cell, 4000 cells/well): 7.00 to 7.52
pIC50 ([1]; DLD-1, DLD1, colorectal cancer, 4000 cells/well): 7.00 to 7.52
pIC50 ([1]; DMS-79, DMS79, lung cancer, small cell, 5000 cells/well): 7.00 to 7.52
pIC50 ([1]; DU-145, DU145, prostate cancer, 3000 cells/well): ≤ 7.00
pIC50 ([1]; EFM-192A, EFM192A, breast cancer, HER2 positive, 4000 cells/well): 7.00 to 7.52
pIC50 ([1]; HCC70, breast cancer, triple-negative, 5000 cells/well): 7.00 to 7.52
pIC50 ([1]; HCC202, breast cancer, HER2 positive, 5000 cells/well): ≥ 7.52
pIC50 ([1]; HCC366, lung cancer, non-small cell, 4000 cells/well): 7.00 to 7.52
pIC50 ([1]; HCC1143, breast cancer, triple-negative, 4000 cells/well): ≥ 7.52
pIC50 ([1]; HCC1419, breast cancer, HER2 positive, 4000 cells/well): ≤ 7.00
pIC50 ([1]; HCC1599, breast cancer, triple-negative, 5000 cells/well): ≤ 7.00
pIC50 ([1]; HCC1806, breast cancer, triple-negative, 4000 cells/well): ≤ 7.00
pIC50 ([1]; HCC1937, breast cancer, triple-negative, 5000 cells/well): ≤ 7.00
pIC50 ([1]; HCC1954, breast cancer, HER2 positive, 4000 cells/well): ≥ 7.52
pIC50 ([1]; HCC2157, breast cancer, triple-negative, 5000 cells/well): ≥ 7.52
pIC50 ([1]; HCT-116, HCT116, colorectal cancer, 3000 cells/well): ≤ 7.00
pIC50 ([1]; HT-29, HT29, colorectal cancer, 2000 cells/well): ≥ 7.52
pIC50 ([1]; HT-144, melanoma, 4000 cells/well): ≤ 7.00
pIC50 ([1]; HUH-6clone5, liver cancer, 4000 cells/well): ≤ 7.00
pIC50 ([1]; HUH-7, liver cancer, 4000 cells/well): ≥ 7.52
pIC50 ([1]; HeLa, cervical cancer, 3000 cells/well): 7.00 to 7.52
pIC50 ([1]; JHH7, JHH-7, liver cancer, 4000 cells/well): ≥ 7.52
pIC50 ([1]; JHH-4, liver cancer, 4000 cells/well): 7.00 to 7.52
pIC50 ([1]; JIMT-1, JIMT1, breast cancer, HER2 positive, 4000 cells/well): ≥ 7.52
pIC50 ([1]; KYSE−410, estophageal cancer, 4000 cells/well): 7.00 to 7.52
pIC50 ([1]; LNCap, prostate cancer, 5000 cells/well): 7.00 to 7.52
pIC50 ([1]; Lovo, colorectal cancer, 4000 cells/well): 7.00 to 7.52
pIC50 ([1]; MCF7, breast cancer, 4000 cells/well): ≤ 7.00
pIC50 ([1]; MDA-MB-231, breast cancer, triple-negative, 4000 cells/well): ≥ 7.52
pIC50 ([1]; MDA-MB-361, breast cancer, HER2 positive, 5000 cells/well): 7.00 to 7.52
pIC50 ([1]; MDA-MB-436, breast cancer, triple-negative, 4000 cells/well): ≥ 7.52
pIC50 ([1]; MDA-MB-468, breast cancer, triple-negative, 4000 cells/well): ≥ 7.52
pIC50 ([1]; MKN-1, MKN1, gastric cancer, 4000 cells/well): 7.00 to 7.52
pIC50 ([1]; NCI-H23, lung cancer, non-small cell, 3000 cells/well): 7.00 to 7.52
pIC50 ([1]; NCI-H69, lung cancer, small cell, 4000 cells/well): 7.00 to 7.52
pIC50 ([1]; NCI-H82, lung cancer, small cell, 4000 cells/well): 7.00 to 7.52
pIC50 ([1]; NCI-H345, lung cancer, small cell, 5000 cells/well): 7.00 to 7.52
pIC50 ([1]; NCI-H446, lung cancer, small cell, 4000 cells/well): 7.00 to 7.52
pIC50 ([1]; NCI-H460, lung cancer, non-small cell, 3000 cells/well): ≤ 7.00
pIC50 ([1]; NCI-H526, lung cancer, small cell, 4000 cells/well): 7.00 to 7.52
pIC50 ([1]; NCI-H1155, lung cancer, non-small cell, 4000 cells/well): 7.00 to 7.52
pIC50 ([1]; NCI-H1299, lung cancer, non-small cell, 4000 cells/well): 7.00 to 7.52
pIC50 ([1]; NCI-H1623, lung cancer, non-small cell, 5000 cells/well): 7.00 to 7.52
pIC50 ([1]; NCI-H1734, lung cancer, non-small cell, 5000 cells/well): ≥ 7.52
pIC50 ([1]; NCI-H1793, lung cancer, non-small cell, 5000 cells/well): 7.00 to 7.52
pIC50 ([1]; NCI-H1836, lung cancer, small cell, 5000 cells/well): 7.00 to 7.52
pIC50 ([1]; NCI-H1838, lung cancer, non-small cell, 4000 cells/well): ≥ 7.52
pIC50 ([1]; NCI-H1975, lung cancer, non-small cell, 3000 cells/well): 7.00 to 7.52
pIC50 ([1]; NCI-H2009, lung cancer, non-small cell, 5000 cells/well): 7.00 to 7.52
pIC50 ([1]; NCI-H2029, lung cancer, small cell, 5000 cells/well): ≥ 7.52
pIC50 ([1]; NCI-H2030, lung cancer, non-small cell, 4000 cells/well): ≥ 7.52
pIC50 ([1]; NCI-H2405, lung cancer, non-small cell, 4000 cells/well): ≤ 7.00
pIC50 ([1]; NCI-N87, gastric cancer, 4000 cells/well): ≥ 7.52
pIC50 ([1]; OVCAR-3, OVCAR3, ovarian cancer, 5000 cells/well): 7.00 to 7.52
pIC50 ([1]; OVCAR-8, OVCAR8, ovarian cancer, 4000 cells/well): 7.00 to 7.52
pIC50 ([1]; PC-3, prostate cancer, 3000 cells/well): 7.00 to 7.52
pIC50 ([1]; PLC/PRF/5, liver cancer, 4000 cells/well): ≥ 7.52
pIC50 ([1]; SK-BR-3, breast cancer, HER2 positive, 5000 cells/well): ≥ 7.52
pIC50 ([1]; SK-HEP1, SK-HEP-1, liver cancer, 4000 cells/well): ≥ 7.52
pIC50 ([1]; SK-OV-3, ovarian cancer, 4000 cells/well): ≤ 7.00
pIC50 ([1]; SNU-449, SNU449, liver cancer, 4000 cells/well): 7.00 to 7.52
pIC50 ([1]; SUM149, breast cancer, triple-negative, 4000 cells/well): ≥ 7.52
pIC50 ([1]; SW480, colorectal cancer, 3000 cells/well): ≥ 7.52
pIC50 ([1]; SW-620, SW620, colorectal cancer, 3000 cells/well): ≥ 7.52
pIC50 ([1]; U2OS, U2-OS, sarcoma, 5000 cells/well): ≥ 7.52
pIC50 ([1]; U-251, U251MG, glioblastoma, 3000 cells/well): 7.00 to 7.52
pIC50 [2]: 8.15
